Source: US20150018403A1, “FLUORENE-AMIDE COMPOUNDS AND PHARMACEUTICAL USE THEREOF” (JAPAN TOBACCO INC., priority 2013, published 2015)
pIC50: −log10 of the molar value.

Key:
[1] = molecular target: T1, hERG current (hERG-transfected HEK293 cells) (Homo sapiens, UniProt Q12809); assay: hERG whole cell patch clamp test; type: cell-based; conditions: whole cell patch clamp, hERG-transfected HEK293 cells
T1 construct: host or cells: HEK293
Experimental: (§1) Using human ether-a-go-go related gene (hERG)-transfected HEK293 cells (Cytomyx Limited), an influence on hERG current was examined according to the whole cell patch clamp technique. The hERG-transfected HEK293 cells were passaged using a CO2 incubator (BNA-111, TABAI ESPEC CORP.) under the set conditions of 37° C., 5% CO2, saturated humidity. Culture containers used were Collagen Type I Coated 75 cm^2 flask (4123-010, AGC TECHNO GLASS CO., Ltd.) and Collagen Type I Coated 35 mm culture dish (4000-010, AGC TECHNO GLASS CO., Ltd.). The culture medium used was E-MEM (Eagle Minimum Essential Medium (Earle's Salts, Nikken biomedical laboratory) added with 10% FCS (Fetal bovine serum, BioWest, L.L.C.) and 1% MEM Non-Essential Amino Acids Solution (NEAA, Invitrogen Corporation). Geneticin for the selection of hERG gene expressing cells was added thereto to a concentration of 400 μg/mL. As the cells for the measurement, 3×10^4 hERG-transfected HEK293 cells were plated on a 35 mm culture dish 4 to 7 days before measurement of the hERG current. The culture dish produced for the measurement contained the above-mentioned culture medium without geneticin (Invitrogen Corporation).
(§2) The highest evaluation concentration of each compound was determined from the highest concentration at which precipitation was not found in the standard extracellular fluid (NaCl: 140 mmol/L, KCl: 2.5 mmol/L, MgCl2: 2 mmol/L, CaCl2: 2 mmol/L, HEPES: 10 mmol/L, glucose: 10 mmol/L (adjusted to pH 7.4 with Tris-base)). As the application method, each solution to be applied was ejected from a Y-tube having a tip diameter of about 0.25 mm, which was adjacent (about 2 mm) to the cells, and applied to the cells. The ejection rate was about 0.4 mL/min.
(§3) The experiment was performed at room temperature under a phase contrast microscope. The 35 mm culture dish plated with the cells was set on a measurement apparatus, and the standard extracellular fluid was continuously applied to the cells from the Y-tube. A glass electrode for the measurement was filled with an intracellular fluid (Potassium Gluconate: 130 mmol/L, KCl: 20 mmol/L, MgCl2: 1 mmol/L, ATP-Mg: 5 mmol/L, EGTA: 3.5 mmol/L, HEPES: 10 mmol/L (adjusted to pH 7.2 with Tris-base)). A conventional whole cell patch clamp method was applied to the cells, and the maintenance electric potential was set to −80 mV. Under a fixed electric potential, the whole cell current was amplified by an amplifier for patch clamp (AXOPATCH-200B, Axon Instruments, Inc.), and the data was loaded into a computer (IMC-P642400, Intermedical Co., Ltd.) using a data acquisition analysis software (pCLAMP 9.2, Axon Instruments, Inc.).
(§4) The measurement of the hERG current was performed in the following two steps. In both cases, the hERG current was initiated by giving a command potential (maintenance electric potential −80 mV, prepulse+20 mV, 1.5 sec, test-pulse −50 mV, 1.5 sec).
(§5) Step (1): The above-mentioned command potential was given at 0.1 Hz for 2 min.
(§6) Step (2): The above-mentioned command potential was subjected to P/3 subtraction of pCLAMP 9.2 to remove leak current. This was repeated three times and an average thereof was taken as hERG current.
(§7) Subsequent to step (1), Step (2) was performed (about 3 min), and the maximum tail current obtained by applying a test-pulse to the hERG current obtained by the method of step (2) was taken as hERG current value. Hereafter, the operations of (1) and (2) were alternately repeated until completion of the experiment and the hERG current value was measured.
(§8) Stable hERG current value was recorded three times (about 10 min), and the standard extracellular fluid was instantaneously exchanged with each application fluid. The hERG current value was measured three times (about 10 min) in the same manner during perfusion of the application fluid, and the current value obtained by the 3rd measurement was taken as hERG current value after perfusion of the application fluid. […]

hERG = molecular target: T2, hERG (Homo sapiens, UniProt Q12809); assay: hERG whole cell patch clamp test; type: cell-based; conditions: human, HEK293 cells transfected with hERG, pH 7.4, read-out: hERG inhibition rate (%); for inhibition at 3 μmol/L: concentration 3 μmol/L; for inhibition at 30 μmol/L: concentration 30 μmol/L
T2 construct: host or cells: HEK293
T2 sequence (Q12809 whole entry): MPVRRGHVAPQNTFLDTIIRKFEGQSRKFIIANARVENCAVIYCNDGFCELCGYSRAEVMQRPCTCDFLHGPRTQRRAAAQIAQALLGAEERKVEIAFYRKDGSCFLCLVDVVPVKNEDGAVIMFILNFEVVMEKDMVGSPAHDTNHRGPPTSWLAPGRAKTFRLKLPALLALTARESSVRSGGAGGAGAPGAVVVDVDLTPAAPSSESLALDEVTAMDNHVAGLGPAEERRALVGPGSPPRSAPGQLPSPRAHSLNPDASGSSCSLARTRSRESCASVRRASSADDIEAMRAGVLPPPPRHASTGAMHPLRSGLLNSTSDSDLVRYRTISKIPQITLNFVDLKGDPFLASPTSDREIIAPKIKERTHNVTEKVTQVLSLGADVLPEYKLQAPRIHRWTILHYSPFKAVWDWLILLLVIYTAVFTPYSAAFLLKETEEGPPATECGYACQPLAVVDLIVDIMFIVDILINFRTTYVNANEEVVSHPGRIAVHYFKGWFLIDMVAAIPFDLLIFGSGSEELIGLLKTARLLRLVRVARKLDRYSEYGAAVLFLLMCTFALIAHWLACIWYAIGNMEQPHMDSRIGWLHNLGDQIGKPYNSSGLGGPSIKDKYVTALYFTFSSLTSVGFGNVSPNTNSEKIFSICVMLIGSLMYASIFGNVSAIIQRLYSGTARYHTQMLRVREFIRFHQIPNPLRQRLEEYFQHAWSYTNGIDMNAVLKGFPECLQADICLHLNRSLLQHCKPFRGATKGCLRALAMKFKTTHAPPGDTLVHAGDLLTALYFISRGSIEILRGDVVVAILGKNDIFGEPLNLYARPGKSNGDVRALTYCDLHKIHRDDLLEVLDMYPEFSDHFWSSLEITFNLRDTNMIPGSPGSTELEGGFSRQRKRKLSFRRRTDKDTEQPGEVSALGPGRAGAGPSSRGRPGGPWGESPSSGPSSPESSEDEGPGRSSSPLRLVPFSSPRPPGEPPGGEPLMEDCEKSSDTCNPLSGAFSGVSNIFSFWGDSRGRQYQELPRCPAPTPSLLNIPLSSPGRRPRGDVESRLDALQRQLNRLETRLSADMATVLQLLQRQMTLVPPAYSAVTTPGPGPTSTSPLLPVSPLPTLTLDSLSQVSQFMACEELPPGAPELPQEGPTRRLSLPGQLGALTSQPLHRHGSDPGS
Experimental: as §1, §2, §3, §4, §5, §6, §7, §8

human PDHK2 (hPDHK2) = molecular target: T3, human PDHK2 (hPDHK2) (Homo sapiens, UniProt Q15119); assay: Inhibitory action of PDHK2 activity in vitro (residual PDH activity after kinase reaction); type: biochemical; conditions: PDH/hPDHK2 complex, 45 min kinase reaction at room temperature; read-out: hPDHK2 IC50
T3 construct: made in house; host or cells: Escherichia coli BL21(DE3), pET17b vector
Experimental: The inhibitory action of PDHK activity was assessed indirectly by measuring the residual PDH activity after kinase reaction in the presence of a test compound.
In the case of human PDHK2 (hPDHK2, Genbank Accession No. BC040478.1), modified hPDHK2 cDNA wherein FLAG-Tag sequence was added to the N terminus of hPDHK2 cDNA clone (pReceiver-M01/PDK2-GeneCopoeia) was prepared by PCR and cloned into a vector (pET17b-Novagen). The recombinant construct was transformed into Escherichia coli (DH5α-TOYOBO). The recombinant clones were identified, and plasmid DNA was isolated and subjected to the DNA sequence analysis. One clone which had the expected nucleic acid sequence was selected for expression work.
For expression of hPDHK2 activity, Escherichia coli strain BL21(DE3) cells (Novagen) were transformed with the pET17b vector containing modified hPDHK2 cDNA. The Escherichia coli were grown to an optical density 0.6 ([…]) at 30° C. Protein expression was induced by the addition of 500 μmol/L isopropyl-β-thiogalactopyranoside. The Escherichia coli were cultured at 30° C. for 5 hr and harvested by centrifugation. Resuspension of the Escherichia coli paste was disrupted by a microfluidizer. FLAG-Tagged protein was purified using FLAG affinity gel. The gel was washed with 20 mmol/L HEPES-NaOH, 500 mmol/L sodium chloride, 1% ethylene glycol, and 0.1% Pluronic F-68 (pH 8.0), and the binding protein was eluted with 20 mmol/L HEPES-NaOH, 100 μg/mL FLAG peptide, 500 mmol/L sodium chloride, 1% ethylene glycol, and 0.1% Pluronic F-68 (pH 8.0). The eluted fractions containing FLAG-Tagged protein were pooled, dialyzed against 20 mmol/L HEPES-NaOH, 150 mmol/L sodium chloride, 0.5 mmol/L EDTA, 1% ethylene glycol, and 0.1% Pluronic F-68 (pH 8.0), and preserved at −80° C.
0.05 U/mL PDH and 0.8 μg/mL hPDHK2 were mixed in a buffer (50 mmol/L 3-morpholinopropanesulfonic acid (pH 7.0), 20 mmol/L dipotassium hydrogen phosphate, 60 mmol/L potassium chloride, 2 mmol/L magnesium chloride, 0.4 mmol/L EDTA, and 0.2% Pluronic F-68, 2 mmol/L dithiothreitol), and the mixture was incubated at 4° C. overnight to obtain a PDH/hPDHK2 complex. The test compounds were diluted with DMSO. […] DMSO (1.5 μL) was added to control wells instead of the test compound. […] The mixture was incubated at room temperature for 90 min, and the residual PDH activity was measured. The absorbance at 340 nm before and after PDH reaction was measured using a microplate reader to detect NADH produced by the PDH reaction. The hPDHK2 inhibition rate (%) of the test compound was calculated from the formula [{(PDH activity of test compound−PDH activity of control)/PDH activity of blank−PDH activity of control)}×100].

[2] = Metabolic stability test in rat liver microsome; type: in vitro ADME
[3] = Metabolic stability test in human liver microsome; type: in vitro ADME; conditions: 37° C., 5 μM
Experimental: Human liver microsome (manufactured by Xenotech, H0620, final concentration (after dilution), 0.2 mg protein/mL) was suspended in 100 mM potassium phosphate buffer (pH 7.4, containing β-nicotinamide adenine dinucleotide phosphate: 1.3 mM, D-glucose-6-phosphate: 3.3 mM, magnesium chloride: 3.3 mM, glucose-6-phosphate dehydrogenase: 0.45 U/mL), and further mixed with a test compound dissolved in MeCN/DMSO (95/5) (final concentration 5 μM). The mixture was incubated at 37° C. for 10 min and 60 min, acetonitrile containing formic acid (final concentration 0.1%) was added, and the mixture was centrifuged. The test compound (unmodified) in the supernatant was measured by high performance liquid chromatography/mass spectrometry (LC/MS) (manufactured by Waters, LC: Acquity UPLC, MS:SQ Detector or TQ Detector). The residual ratio (%) was calculated from the obtained measurement value.

tissue PDH activity = assay: Ex vivo PDH activation assay (liver and epididymal adipose tissue mitochondrial fractions after oral dosing); type: in vivo, Sprague-Dawley rats; conditions: 3 mg/kg, rat
Experimental: The action of test compound on tissue PDH activity was evaluated. NADH production was detected via p-iodonitrotetrazolium violet (INT)-coupled system to measure PDH activity.
Normal male Sprague-Dawley rats were randomly allocated m to the vehicle group and the test compound groups. The vehicle (0.5% aqueous methylcellulose solution, 5 mL/kg) or the test compound was orally administered to the rats. At 5 or 20 hr after administration, the rats were anesthetized with an intraperitoneal injection of sodium pentobarbital (60 mg/kg), and liver slices and epididymal adipose tissues were collected.
(§9) To the liver slices were rapidly added 9 volumes of ice-cold homogenization buffer (0.25 mol/L sucrose, 5 mmol/L tris(hydroxymethyl)aminomethane hydrochloride (pH 7.5), 2 mmol/L EDTA), and the mixtures were homogenized using a Polytron homogenizer. The homogenates were centrifuged at 600×g, 4° C. for 10 min to obtain the supernatant. The supernatants (1 mL) were centrifuged at 16,000×g, 4° C. for 10 min to collect the precipitates. The precipitates were washed by resuspension in the homogenization buffer (1 mL) and centrifuged in the same manner. The precipitates were frozen with liquid nitrogen and stored at −80° C. as the liver mitochondrial fraction.
as §9, with “adipose tissues” for “liver slices”, “3” for “9”, “of an” for “of”, “buffer,” for “buffer (0.25 mol/L sucrose, 5 mmol/L tris(hydroxymethyl)aminomethane hydrochloride (pH 7.5), 2 mmol/L EDTA),”, “supernatants” for “supernatants (1 mL)”, “adipose tissue” for “liver”
The mitochondrial fractions were thawed and suspended with the sample buffer (0.25 mol/L sucrose, 20 mmol/L tris(hydroxymethyl)aminomethane hydrochloride (pH 7.5), 50 mmol/L potassium chloride, and 1 mL/L 4-(1,1,3,3-tetramethylbutyl)phenyl-polyethylene glycol (Triton X-100)). Active PDH activity (PDHa activity) and total PDH activity (PDHt activity) were measured to evaluate the PDH activity. For the measurement of the PDHt activity, equal amounts of the mitochondrial suspension and the activation buffer (0.25 mol/L sucrose, 20 mmol/L tris(hydroxymethyl)aminomethane hydrochloride (pH 7.5), 50 mmol/L potassium chloride, 1 mL/L Triton X-100, 4 mmol/L calcium chloride, 40 mmol/L magnesium chloride, 10 mmol/L sodium dichloroacetate) were mixed, and the mixtures were incubated at 37° C. for 10 min. Forty microliters of the mitochondrial suspensions diluted with a sample buffer were added to a 96-well microplate for activity measurement and blank measurement. Then 180 μL of the reaction mixture (0.056 mmol/L potassium phosphate buffer (pH 7.5), 5.6 mmol/L DL-carnitine, 2.8 mmol/L NAD, 0.22 mmol/L thiamin pyrophosphate, 0.11 mmol/L Coenzyme A, 1.1 mL/L Triton X-100, 1.1 mmol/L magnesium chloride, 1.1 g/L bovine serum albumin, 0.67 mmol/L INT, 7.2 μmol/L phenazine methosulfate, 28 mmol/L sodium oxamate) was added to each well, and then 20 μL of 50 mmol/L sodium pyruvate for activity measurement or water for blank measurement were added. The mixtures were incubated at room temperature under shading. The absorbances at 500-750 nm, which were attributable to reduction of INT, the final electron acceptor, were measured using a microplate reader over time and the changes in the absorbance were calculated. The PDH activity was calculated by subtraction of the change in absorbance of the blank well from that of the activity measurement well. The percentage of the PDHa activity to the PDHt activity was calculated and taken as an index of the PDH activation.

T1 sequence (Q12809 whole entry): as above

Row | SMILES | pIC50 [1] | inhibition at 3 μmol/L (hERG) | inhibition at 30 μmol/L (hERG) | pIC50 (human PDHK2 (hPDHK2)) | stability in liver microsome (residual ratio %) ([2]; 10 min) | stability in liver microsome (residual ratio %) ([2]; 60 min) | stability in liver microsome (residual ratio %) ([3]; 10 min) | stability in liver microsome (residual ratio %) ([3]; 60 min) | PDHa activity (% PDHt activity) (tissue PDH activity; adipose tissue, 5 hr after oral administration) | PDHa activity (% PDHt activity) (tissue PDH activity; adipose tissue, 20 hr after oral administration) | PDHa activity (% PDHt activity) (tissue PDH activity; liver, 5 hr after oral administration) | PDHa activity (% PDHt activity) (tissue PDH activity; liver, 20 hr after oral administration)
1 | CC(C)(C(N)=O)n1cc(-c2cc(F)cc3c2-c2ccccc2[C@]3(O)C(F)(F)F)cn1 [compound (D), 2-{4-[(9R)-2-Fluoro-9-hydroxy-9-(trifluoromethyl)-9H-fluoren-4-yl]-1H-pyrazol-1-yl}-2-methylpropanamide] | 4.85 | 9.4% | 67.5% |  |  |  |  |  |  |  |  | 
2 | C[C@@H](O)COc1cc(-c2cnn(C(C)(C)C(N)=O)c2)c2c(c1)[C@@](O)(C(F)(F)F)c1ccccc1-2 [compound (3), 2-(4-{(9R)-9-hydroxy-2-[(2R)-2-hydroxypropoxy]-9-(trifluoromethyl)-9H-fluoren-4-yl}-1H-pyrazol-1-yl)-2-methylpropanamide] |  |  |  | 8.33 | 99.2% | 99.8% | 98.3% | 99.7% | 59 ± 8 % PDHt activity | 54 % PDHt activity | 74 ± 11 % PDHt activity | 42 % PDHt activity
3 | CC(C)(O)COc1cc(-c2cnn(CCO)c2)c2c(c1)[C@@](O)(C(F)(F)F)c1ccccc1-2 [compound (C), (9R)-4-[1-(2-Hydroxyethyl)-1H-pyrazol-4-yl]-2-(2-hydroxy-2-methylpropoxy)-9-(trifluoromethyl)-9H-fluoren-9-ol] | 4.88 | 11.5% | 69% |  |  |  |  |  |  |  |  | 
